Values quoted from earlier work, collected in patent publication US20170049851A1, “Method for Medical Treatment” (priority 2015, published 2017).

Details: healthy as well as unhealthy persons; some adverse effects, largely gastrointestinal, with very high intakes

Compound: COC1=C(OC)C(=O)C(C/C=C(\C)CC/C=C(\C)CC/C=C(\C)CC/C=C(\C)CC/C=C(\C)CC/C=C(\C)CC/C=C(\C)CC/C=C(\C)CC/C=C(\C)CCC=C(C)C)=C(C)C1=O [CoQ10, ubiquinone]
- daily dosage found to be tolerated: up to 3600 mg
